Entries after “also recorded” stand apart in the source; their conditions may differ. Ends that are not written are not given here.
Tests used:
[1] = tested on: bacteria; assay: Binding of targeting peptides to microorganisms (Table 3); conditions: preferably 1x PBS; for Target(s) (microorganism bound by the targeting peptide) / Target(s) (microorganisms bound by the targeting peptide): peptide binding in aqueous buffers that varied depending on peptide solubility
[2] = tested on: microorganisms; assay: Morphology, biofilm and growth disruption by peptides (Table 5); assay type: cell-based; design: key: A: Peptide aggregates; B: Less hyphal formation; Clumps; Diffuse clumps and small polyps; F: Diffuse growth; H: Thin; I: Growth inhibition; Microcolony formation; Rippled; Small polyps; Thick; W: Halo formation on top, microlonies on bottom
Excerpt: In certain embodiments peptides that induce alterations in phenotype or other biological activities can also be used as antimicrobial effector moieties.

[3] = microorganism bound by the targeting peptide, binding in aqueous buffers chosen by peptide solubility

Substance: PF-234 (RTPYILRS; Peptide with targeting and/or antimicrobial activity)
- Target(s) [1, 3]: S. epidermidis; also recorded: M. luteus
- Organism, effect ([2]; M. luteus): M. luteus (T)

Substance: PF-609 (TEIKLDNNEYLVLNLDDILGILK; Peptide with targeting and/or antimicrobial activity)
- Target(s) (microorganism bound by the targeting peptide) [1]: P. mirabilis; also recorded: E. coli; also recorded: S. pneumoniae
- Organism, effect (morphology, biofilm and growth disruption) ([2]; C. jejuni): C. jejuni (R)
- Organism, effect (morphology, biofilm and growth disruption) ([2]; E. faecalis): E. faecalis (A)
- Organism, effect (morphology, biofilm and growth disruption) ([2]; MRSA): MRSA (C)
- Organism, effect (morphology, biofilm and growth disruption) ([2]; S. pneumoniae): S. pneumoniae (R)

Substance: PF-664 (chain 1 DQLCVEYPARVSTG; chain 2 DQLCVEYPARVSTG; Peptide with targeting and/or antimicrobial activity)
- Target(s) (microorganism bound by the targeting peptide) [1]: M. smegmatis
- Organism, effect (morphology, biofilm and growth disruption) ([2]; E. faecalis): E. faecalis (R)
- Organism, effect (morphology, biofilm and growth disruption) ([2]; MRSA): MRSA (R)
- Organism, effect (morphology, biofilm and growth disruption) ([2]; S. epidermidis): S. epidermidis (M)
- Organism, effect (morphology, biofilm and growth disruption) ([2]; S. pneumoniae): S. pneumoniae (M)

Substance: LMFFSENMDKRDTLSGKFRYFAGSKVIKLMNWLSENGK [PF-226]
- Target(s) [1, 3]: A. baumannii
- Organism, effect ([2]; M. luteus): M. luteus (T)
- Organism, effect ([2]; S. epidermidis): S. epidermidis (C)

Substance: SIGSMIGMYSFRHKTKHIKFTFGIPFILFLQFLLVYFYILK [PF-319]
- Target(s) [1, 3]: S. epidermidis; also recorded: B. subtilis; also recorded: C. difficile
- Organism, effect ([2]; B. subtilis): B. subtilis (C)
- Organism, effect ([2]; S. epidermidis): S. epidermidis (C)

Substance: PF-646 (chain 1 APASPGRRPG; chain 2 APASPGRRPG; Peptide with targeting and/or antimicrobial activity)
- Target(s) (microorganism bound by the targeting peptide) [1]: Mycobacteria spp
- Organism, effect (morphology, biofilm and growth disruption) ([2]; C. albicans): C. albicans (B)
- Organism, effect (morphology, biofilm and growth disruption) ([2]; S. pneumoniae): S. pneumoniae (H)

Substance: PF-294 (DFLVNFLWFKGELNWGKKRYK; Peptide with targeting and/or antimicrobial activity)
- Target(s) [1, 3]: S. epidermidis; also recorded: C. difficile
- Organism, effect ([2]; S. epidermidis): S. epidermidis (C)

Substance: MGIIAGIIKFIKGLIEKFTGK [PF-006]
- Target(s) ([1]; microorganism the targeting peptide binds, binding in aqueous buffers that varied with peptide solubility): S. epidermidis and M. luteus and E. coli and P. aeruginosa and MRSA and E. faecalis and C. jeikeium and C. jejuni
- Organism, effect ([2]; B. subtilis): B. subtilis (I)
- Organism, effect ([2]; C. jejuni): C. jejuni (D)
- Organism, effect ([2]; M. luteus): M. luteus (A)
- Organism, effect ([2]; MRSA): MRSA (I)
- Organism, effect ([2]; S. epidermidis): S. epidermidis (D)
- Organism, effect ([2]; S. pneumoniae): S. pneumoniae (R)

Substance: PF-421 (KHCFEITDKTDVV; Peptide with targeting and/or antimicrobial activity)
- Target(s) (microorganisms bound by the targeting peptide) [1]: C. jeikeium
- Organism, effect ([2]; S. pneumoniae): S. pneumoniae (H)

Substance: PF-665 (chain 1 VLRVATAVGEVPTGL; chain 2 VLRVATAVGEVPTGL; Peptide with targeting and/or antimicrobial activity)
- Target(s) (microorganism bound by the targeting peptide) [1]: Mycobacteria spp
- Organism, effect (morphology, biofilm and growth disruption) ([2]; S. pneumoniae): S. pneumoniae (H)

Substance: PF-652 (chain 1 FLAPARPDLQAQRQALAQ; chain 2 FLAPARPDLQAQRQALAQ; Peptide with targeting and/or antimicrobial activity)
- Target(s) (microorganism bound by the targeting peptide) [1]: Mycobacteria spp
- Organism, effect (morphology, biofilm and growth disruption) ([2]; S. pneumoniae): S. pneumoniae (A)

Substance: PF-584 (SYIKNLSNQKFLIAF; Peptide with targeting and/or antimicrobial activity)
- Target(s) (microorganisms bound by the targeting peptide) [1]: S. epidermidis and M. luteus and P. mirabilis and C. albicans and MRSA and S. pneumoniae and E. faecalis and C. jeikeium
- Organism, effect (morphology, biofilm and growth disruption) ([2]; C. jejuni): C. jejuni (D)
- Organism, effect (morphology, biofilm and growth disruption) ([2]; E. coli): E. coli (C)
- Organism, effect (morphology, biofilm and growth disruption) ([2]; E. faecalis): E. faecalis (D)
- Organism, effect (morphology, biofilm and growth disruption) ([2]; MRSA): MRSA (D)
- Organism, effect (morphology, biofilm and growth disruption) ([2]; S. epidermidis): S. epidermidis (C)
- Organism, effect (morphology, biofilm and growth disruption) ([2]; S. pneumoniae): S. pneumoniae (D)

Substance: PF-604 (LMEQVEV; Peptide with targeting and/or antimicrobial activity)
- Target(s) (microorganism bound by the targeting peptide) [1]: S. epidermidis; also recorded: C. albicans; also recorded: C. jeikeium
- Organism, effect (morphology, biofilm and growth disruption) ([2]; E. faecalis): E. faecalis (A)

Substance: PF-651 (chain 1 PRWPTGAGRHR; chain 2 PRWPTGAGRHR; Peptide with targeting and/or antimicrobial activity)
- Target(s) (microorganism bound by the targeting peptide) [1]: Mycobacteria spp
- Organism, effect (morphology, biofilm and growth disruption) ([2]; S. pneumoniae): S. pneumoniae (H)

Substance: PF-344 (DERLPEAKAIRNFNGSVMVLGR; Peptide with targeting and/or antimicrobial activity)
- Target(s) [1, 3]: B. subtilis; also recorded: C. jejuni
- Organism, effect ([2]; E. coli): E. coli (A)

Substance: PF-128 (GIKVVAARFEEIQFSENFDSIILA; Peptide with targeting and/or antimicrobial activity)
- Target(s) [1, 3]: M. luteus; also recorded: P. aeruginosa; also recorded: E. faecalis
- Organism, effect ([2]; P. aeruginosa): P. aeruginosa (C)
- Organism, effect ([2]; S. epidermidis): S. epidermidis (D)

Substance: PF-658 (chain 1 PTTPPPTTPPEIPTGGTVIST; chain 2 PTTPPPTTPPEIPTGGTVIST; Peptide with targeting and/or antimicrobial activity)
- Target(s) (microorganism bound by the targeting peptide) [1]: Mycobacteria spp
- Organism, effect (morphology, biofilm and growth disruption) ([2]; MRSA): MRSA (R)
- Organism, effect (morphology, biofilm and growth disruption) ([2]; S. pneumoniae): S. pneumoniae (H)

Substance: MKRRRCNWCGKLFYLEEKSKEAYCCKECRKKAKKVKK [PF-307]
- Target(s) [1, 3]: S. epidermidis; also recorded: B. subtilis; also recorded: B. fragilis; also recorded: C. difficile
- Organism, effect ([2]; B. subtilis): B. subtilis (H)
- Organism, effect ([2]; C. albicans): C. albicans (B)
- Organism, effect ([2]; S. epidermidis): S. epidermidis (T)

Substance: PF-593 (MEISTLKKEKLHVKDELSQYLANYKK; Peptide with targeting and/or antimicrobial activity)
- Target(s) (microorganisms bound by the targeting peptide) [1]: C. jeikeium
- Organism, effect (morphology, biofilm and growth disruption) ([2]; E. faecalis): E. faecalis (A)

Substance: PF-403 (LLSTEQLLKYYDGETFDGFQLPSNE; Peptide with targeting and/or antimicrobial activity)
- Target(s) (microorganisms bound by the targeting peptide) [1]: E. coli; also recorded: P. aeruginosa; also recorded: S. pneumoniae; also recorded: E. faecalis; also recorded: C. jeikeium; also recorded: C. jejuni
- Organism, effect ([2]; E. coli): E. coli (R)
- Organism, effect ([2]; MRSA): MRSA (M)
- Organism, effect ([2]; S. epidermidis): S. epidermidis (M)

Substance: PF-270 (MYLTPYAWIAVGSIFAFSVTTIKIGDQNDEKQKSHKNDVHKR; Peptide with targeting and/or antimicrobial activity)
- Target(s) [1, 3]: S. epidermidis; also recorded: M. luteus; also recorded: P. aeruginosa
- Organism, effect ([2]; M. luteus): M. luteus (H)

Substance: PF-639 (chain 1 QATQIKSWIDRLLVSED; chain 2 QATQIKSWIDRLLVSED; Peptide with targeting and/or antimicrobial activity)
- Target(s) (microorganism bound by the targeting peptide) [1]: S. pneumoniae; also recorded: C. jeikeium
- Organism, effect (morphology, biofilm and growth disruption) ([2]; C. albicans): C. albicans (B)
- Organism, effect (morphology, biofilm and growth disruption) ([2]; E. faecalis): E. faecalis (H)
- Organism, effect (morphology, biofilm and growth disruption) ([2]; MRSA): MRSA (R)
- Organism, effect (morphology, biofilm and growth disruption) ([2]; S. pneumoniae): S. pneumoniae (I)

Substance: PF-396 (LIYTILASLGVLTVLQAILGREPKAVKA; Peptide with targeting and/or antimicrobial activity)
- Target(s) (microorganisms bound by the targeting peptide) [1]: S. epidermidis; also recorded: E. coli; also recorded: P. aeruginosa; also recorded: C. albicans; also recorded: E. faecalis; also recorded: C. jeikeium
- Organism, effect ([2]; E. coli): E. coli (C)
- Organism, effect ([2]; E. faecalis): E. faecalis (C)
- Organism, effect ([2]; MRSA): MRSA (C)
- Organism, effect ([2]; S. epidermidis): S. epidermidis (S)

Substance: PF-638 (chain 1 TFILPK; chain 2 TFILPK; Peptide with targeting and/or antimicrobial activity)
- Target(s) (microorganism bound by the targeting peptide) [1]: S. epidermidis and C. albicans and MRSA and C. jeikeium
- Organism, effect (morphology, biofilm and growth disruption) ([2]; E. faecalis): E. faecalis (H)
- Organism, effect (morphology, biofilm and growth disruption) ([2]; MRSA): MRSA (M)
- Organism, effect (morphology, biofilm and growth disruption) ([2]; S. epidermidis): S. epidermidis (R)
- Organism, effect (morphology, biofilm and growth disruption) ([2]; S. pneumoniae): S. pneumoniae (I)

Substance: WSRVPGHSDTGWKVWHRW-NH2 [PF-547]
- Target(s) (microorganisms bound by the targeting peptide) [1]: S. epidermidis and E. coli and P. aeruginosa and C. albicans and MRSA and S. pneumoniae and E. faecalis
- Organism, effect (morphology, biofilm and growth disruption) ([2]; B. subtilis): B. subtilis (I)
- Organism, effect (morphology, biofilm and growth disruption) ([2]; E. faecalis): E. faecalis (R)
- Organism, effect (morphology, biofilm and growth disruption) ([2]; MRSA): MRSA (M)
- Organism, effect (morphology, biofilm and growth disruption) ([2]; S. epidermidis): S. epidermidis (R)

Substance: PF-074 (RDIHPIYFMTKD; Peptide with targeting and/or antimicrobial activity)
- Target(s) [1, 3]: S. epidermidis and M. luteus and MRSA
- Organism, effect ([2]; MRSA): MRSA (M)
- Organism, effect ([2]; S. epidermidis): S. epidermidis (D)

Substance: PF-C136 (LILSYQASVYPLFAYLCQQKDY; Peptide with targeting and/or antimicrobial activity)
- Target(s) (microorganism bound by the targeting peptide) [1]: A. naeslundii; also recorded: F. nucleatum; also recorded: P. gingivalis; also recorded: S. mutans; also recorded: T. denticola
- Organism, effect (morphology, biofilm and growth disruption) ([2]; F. nucleatum): F. nucleatum (C)
- Organism, effect (morphology, biofilm and growth disruption) ([2]; P. gingivalis): P. gingivalis (R)

Substance: PF-395 (YCVPLGNMGNMNNKIW; Peptide with targeting and/or antimicrobial activity)
- Target(s) (microorganisms bound by the targeting peptide) [1]: S. epidermidis; also recorded: E. coli; also recorded: P. aeruginosa; also recorded: S. pneumoniae; also recorded: E. faecalis; also recorded: C. jeikeium; also recorded: C. jejuni
- Organism, effect ([2]; E. coli): E. coli (R)
- Organism, effect ([2]; MRSA): MRSA (C)
- Organism, effect ([2]; S. epidermidis): S. epidermidis (C)

— patent US9597407B2, “Targeted antimicrobial moieties” (C3 Jian, Inc., priority 2009, dated 2017)
